row,SMILES,melting point
1,CCOC1=NS(=O)(=O)C(S(C)(=O)=O)=C1N,214 to 217 °C
2,COC(=O)CCn1c(=O)n(CCN2CCN(c3cccc(OC)c3)CC2)c(=O)c2cscc21,136 to 137 °C
3,O=C1NC2CCC(=O)N2[C@H]1CO (some centres undefined),61 to 75 °C
4,O=C(Oc1cc(=O)[nH]cc1Cl)c1ccccc1,196 to 197 °C
5,O=C(O)C(=O)c1ccc(OCCCc2ccccc2)cc1,58 to 59 °C
6,Cc1nc(C(C)(O)c2nc(C)c(C)s2)sc1C,143 to 144 °C
7,Cc1noc(NS(=O)(=O)c2ccccc2-c2ccc(C(F)(F)C(C)C)cc2)c1C,52 to 58 °C
8,FC(F)(F)c1ccc2c(C3=CCN(CCCOc4cccc5[nH]ccc45)CC3)c[nH]c2c1,190 to 195 °C
9,Fc1cc(Cl)ccc1-n1nc2c(c1Br)CCC2,106 to 110 °C
10,COc1ccc2c(c1)C(=O)c1c-2c(N2CCN(CC3CO3)CC2)nc2ccccc12 (centres undefined),138 to 139 °C
11,O=C(O)c1ccc(NCc2cccc([N+](=O)[O-])c2)cc1O,189 °C
12,"CCCN1CCC(O)(c2cccc(F)c2F)C1 (single isomer, unassigned; (-))",95 to 98 °C
13,O=C(O)Cc1cc(Cl)cc(Cl)c1Cl,125 to 133 °C
14,Clc1nc2ccnn2c2ncccc12,160 °C
15,O=c1[nH]c2ccccc2n1CCCN1CCC(O)(c2ccc(Cl)c(C(F)(F)F)c2)CC1,189 °C
16,COc1ccc(S(=O)(=O)N(CC(N)=O)c2ccc(Cl)cc2C(O)c2cc(Cl)ccc2Cl)cc1OC (centres undefined),132 °C
17,O=C(CCc1nnc(Nc2ccccc2Cl)o1)NC1CCN(Cc2ccc(F)c(F)c2)CC1,162 to 163 °C
18,N#CC(C#N)=C(NC1CCN(Cc2ccccc2)CC1)NC1CCN(Cc2ccccc2)CC1,147 to 148 °C
19,O=C(CC(=O)Oc1cc(O)cc(O)c1)Oc1cc(O)cc(O)c1,258 to 260 °C
20,O=C(O)c1ccccc1Nc1ccc(CCCCc2ccc(Cl)c(Cl)c2)cc1,98 to 105 °C
21,Oc1ncnc2c(-c3ccc(Cc4ccccc4)cc3)cnn12,300 to 303 °C
22,O=[N+]([O-])c1ccc(Cl)nc1-c1ccncc1,137 to 138 °C
23,CC1(C)COC(CCCc2ccc(NC=NO)cc2)OC1,138 to 140 °C
24,Cc1nn2c(C(F)(F)F)cc(-c3ccc(Cl)cc3)nc2c1C#N,238 °C
25,O=C(O)c1ccc(C(=O)O)c(OC(F)(F)C(F)OC(F)(F)C(F)(OC(F)(F)C(F)(F)C(F)(F)F)C(F)(F)F)c1 (centres undefined),236 to 239 °C
26,C[C@@H]1Cc2ccsc2[C@H](C)N1CCCCNC(=O)c1ccc(NS(C)(=O)=O)cc1 (relative stereo),112 to 116 °C

row,SMILES,melting point
1,CC(C)Cn1c(C(F)(F)F)nc2cc(F)c(-n3c(=O)cc(C(F)(F)F)n(C)c3=O)cc21,169 to 170 °C
2,Cc1cc2c(s1)S(=O)(=O)N(C(C)(C)C)C2=O,80 to 81 °C
3,CS(=O)(=O)c1ccc(-n2cnc3ccc(-c4nnc(CCc5cccc(C#N)c5)o4)cc32)cc1,225 to 226 °C
4,CCOC(=O)C(=O)NNc1ccc(N)cc1,97 to 99 °C
5,COCCCCCCCCCCCC(=O)O,45 to 47 °C
6,CC(C)(Cl)C(=O)c1ccc(C(Br)c2ccc(C(=O)C(C)(C)Cl)cc2)cc1,93 °C
7,CC(C)(Oc1ccc(OCc2nc(-c3ccc(C(C)(C)C)cc3)no2)cc1)C(=O)O,138 to 140 °C
8,O=C(Cc1ccccc1N1CCCC1)N1C[C@@H]2[C@H](F)CCC(c3ccccc3)(c3ccccc3)[C@@H]2C1,170 °C
9,CCOC(=O)c1cc2c([nH]1)c(N(C)S(=O)(=O)c1cccs1)cn2CC,122 °C
10,CC(C)(C)c1ccc(OCCOc2ccccc2N)c(N)c1,148 to 150 °C
11,Nc1cc(C(=O)O)cc(S(N)(=O)=O)c1Oc1ccccc1,252 to 253 °C
12,CNC(=NS(=O)(=O)C(F)(F)F)SC,88 to 89 °C
13,COc1c(Br)cc(C2CC=CCC2[N+](=O)[O-])c(OC)c1OC (centres undefined),134 to 136 °C
14,Nc1nc2ccccc2c2c1ncn2CCCCNC(=O)c1ccc(Cn2c(N3CCCC3)nc3ccccc32)cc1,150 to 153 °C
15,Cc1scc2c1N(C(=O)N1CCCC(CCCN(C)C)C1)c1ccccc1NC2=O (centres undefined),137 to 139 °C
16,Cc1cc(C(=O)NN=C(N)CS(=O)(=O)c2ccccc2)oc1C,197 to 199 °C
17,O=C(O)c1cn(C2CC2)c2c(F)c(N3CC(N4CCCC4)C3)c(F)cc2c1=O,224 to 227 °C
18,CC(C)Nc1cccnc1N1CCN(C(=O)c2ccc(C(=O)NC(C)(C)CO)cc2)CC1,113 to 115 °C
19,N=c1nc(Nc2ccccc2)nc2[nH]c3ccccc3n12,> 300 °C
20,N#Cc1ccc(-c2ccc(Cl)cc2)cc1,128 to 130 °C
21,Cc1c(O)ccc(Cl)c1N,143 to 144 °C
22,O=C(N[C@H]1CCCNC1=O)c1cccc(F)c1F,160 to 162 °C
23,COC(=O)CNc1cccc(Br)c1,66 to 68 °C
24,CCOP(=O)(Cc1ccc(C(=S)Nc2nc3c(s2)Cc2c(Cl)cccc2-3)cc1)OCC,180 °C
25,O=[N+]([O-])c1ccc(Oc2ccccc2)c(Cl)c1Oc1ccccc1,106 to 107 °C
26,CC(=O)C(CCC(=O)O)(CCC(=O)O)C(C)=O,176 °C

row,SMILES,melting point
1,C#CCN(C(=O)c1ccco1)c1c(C)cccc1C,113 °C
2,O=C(CCCCCNC(=O)[C@H](Cc1c[nH]c2ccccc12)NC(=O)CCCc1c[nH]c2ccccc12)NO,94 to 96 °C
3,NC(=O)C1CN1Cc1ccccc1 (centres undefined),114 to 116 °C
4,Nc1cc(-c2ccc(Cl)cc2)on1,141 to 143 °C
5,COC1=CC(=O)c2c(c(COc3cc(C=Cc4cc(OC)c(OC)c(OC)c4)ccc3OC)c(C)n2C)C1=O,192 to 194 °C
6,O=[N+]([O-])c1cccc2nc[nH]c12,242 to 245 °C
7,BrCc1cc2ccccc2cc1CBr,147 to 148 °C
8,CC(=O)n1cc(-c2ccccc2)nc1-c1ccccc1C,102 to 104 °C
9,COc1cccc(CC(=O)O)c1OCCCc1cc(OC(C)C)nn1Cc1ccc(C(F)(F)F)cc1,116 to 117 °C
10,Cc1[nH]nc(NC2CCCCC2)c1C(=O)O,162 to 163 °C
11,OC(COCCCl)c1ccc2cc(OCc3ccccc3)ccc2c1 (centres undefined),86 to 87.5 °C
12,COc1ccc2c(c1)CCc1cc(=O)[nH]nc1-2,246 to 248 °C
13,CC(C)(C)P(=O)(O)CCCN,253 to 255 °C
14,Cc1nn(C)c2ccc(C(=O)O)c(C3=NC(C)(C(C)C)C(=O)N3)c12 (centres undefined),156 to 166 °C
15,COc1ccnc(CCc2nc3cncnc3[nH]2)c1,150 to 152 °C
16,CC(C)(C)OC(=O)NCc1nc(C(=O)ON2C(=O)CCC2=O)cs1,171 °C
17,CCCCOc1cc(F)ccc1[N+](=O)[O-],75 to 76 °C
18,Nc1nnc(SCc2ccc(Cl)cc2)s1,162 to 164 °C
19,N#Cc1ccc2[nH]nc(-c3ccccc3)c2c1,150 to 151 °C
20,COc1cc(CNC(=O)c2cc3c(=O)n(CC4CCCCC4)c(=O)n(C)c3s2)ccn1,167 to 210 °C
21,Cc1cc(C)nc(-n2ccnc2SCc2ccccc2NC=O)c1,124 to 126 °C
22,Nc1cc2c(cc1[N+](=O)[O-])[nH]c(=O)c(=O)n2C1CCCCC1,> 260 °C
23,CC1CCCCC1C(=O)Nc1ccc(-c2cnc(-c3ccc(NC(=O)c4ccccn4)cc3)[nH]2)cc1 (centres undefined),227 to 229 °C
24,NCC(=O)NCc1cc(=O)c(O)co1,216 to 218 °C
25,CCOC(=O)C(=CNc1ccc(F)cc1F)C(=O)c1c(F)cc(Cl)c(F)c1Cl,84 to 86 °C
26,NC1CCc2cc(Cl)ccc2NC1=O (centres undefined),170 to 171 °C

row,SMILES,melting point
1,CCOC(=O)C1C(=O)Nc2ccccc2SC1c1ccccc1 (centres undefined),199 °C
2,NC(=O)c1cc2c(Oc3ccc(Cl)cc3)c[nH]c(=O)c2s1,> 250 °C
3,Fc1ccc(-c2nc3ccc(N4CCN(C5CC5)CC4)nn3c2-c2ccnnc2)cc1,206 to 209 °C
4,CC1COc2c(ccc(F)c2F)N1C(=O)C=NO (centres undefined),188 to 190 °C
5,CC(C)(C)c1cc(NC(=O)c2csc(-c3ccc(N)cc3)n2)cc(C(C)(C)C)c1O,267 to 268 °C
6,CC(=O)Nc1ccc2c(c1)CC(=O)N2CCN1CCN(Cc2ccccc2)CC1,145 to 147 °C
7,CCn1c(=O)c(-c2cc(OC)cc(OC)c2)cc2cnc(S(C)=O)nc21 (centres undefined),114 to 116 °C
8,Cc1ccc(-c2ccc(NC(=O)OC(C)(C)C)c([N+](=O)[O-])c2)cc1,105 to 108 °C
9,Fc1ccc(F)c(CN2CCNc3ncc(I)cc32)c1,175 °C
10,Cc1cc(-c2ccccc2)co1,89 to 91 °C
11,Cn1cc(O)c(=O)c2ccc(F)cc21,283 to 285 °C
12,OC(Cc1ncc[nH]1)(Cn1cncn1)c1ccc(Cl)cc1Cl (centres undefined),168 to 170 °C
13,Cc1cc(Oc2ccc(Cl)c(C(F)(F)F)c2)ncc1[N+](=O)[O-],75 to 80 °C
14,COc1ccc2nc(NC(=O)C(CC3CCCC3)c3ccc(S(=O)(=O)NCc4cccnc4)cc3)sc2n1 (centres undefined),227 to 229 °C
15,COC1Nc2c(ccc(C)c2OC(C)=O)C(=O)N2CCCC12 (centres undefined),147 to 150 °C
16,Cc1nc(N(C)C)ncc1OCc1ccccc1,73 to 74 °C
17,COC(=O)c1cc(I)cc2c1Nc1ccccc1C2,148 to 150 °C
18,CCOC(=O)C1=C(NC(=O)Nc2ccc([N+](=O)[O-])c(C(=O)OCC)c2)CCC1,152 to 155 °C
19,CC(=N)Nc1ccccc1N1CCOCC1,140 to 141 °C
20,C=C=CC1(OC(C)=O)CCC2C3CCc4cc(OC)ccc4C3CCC21C (centres undefined),89 to 90 °C
21,O=S1(=O)NCN(C2CCCCCCC2)c2cc(Cl)ccc21,141 to 143 °C
22,COC(=O)c1ccc(-c2nc3ccccc3o2)cc1,190 to 191 °C
23,Cc1ccccc1-c1nc2c(o1)C(=O)c1ccccc1C2=O,212 °C
24,CCOC(=O)c1[nH]c2cc(Cl)cc(Cl)c2c1NCC(=O)OCCCC(=O)c1ccccc1,139 to 140 °C
25,Cn1c(COc2nc(CCC(=O)O)oc2-c2ccccc2)nc2ccccc21,222 to 224 °C
26,Nc1sc2c(c1C(=O)c1ccc3ccccc3c1)CCC(Cc1ccccc1)C2 (centres undefined),69 to 70 °C

# Source: a melting point compilation (Tetko et al.; mined from patent text by program, amines drawn as free bases though some values may be those of a salt)
